One data set addresses T1, OCT1 (Homo sapiens, UniProt O15245).
T1 construct: containing the full length SLC22A1 cDNA (NM_003057) encoding the human OCT1 protein; expressed in transfected cells
T1 sequence (O15245 1-554): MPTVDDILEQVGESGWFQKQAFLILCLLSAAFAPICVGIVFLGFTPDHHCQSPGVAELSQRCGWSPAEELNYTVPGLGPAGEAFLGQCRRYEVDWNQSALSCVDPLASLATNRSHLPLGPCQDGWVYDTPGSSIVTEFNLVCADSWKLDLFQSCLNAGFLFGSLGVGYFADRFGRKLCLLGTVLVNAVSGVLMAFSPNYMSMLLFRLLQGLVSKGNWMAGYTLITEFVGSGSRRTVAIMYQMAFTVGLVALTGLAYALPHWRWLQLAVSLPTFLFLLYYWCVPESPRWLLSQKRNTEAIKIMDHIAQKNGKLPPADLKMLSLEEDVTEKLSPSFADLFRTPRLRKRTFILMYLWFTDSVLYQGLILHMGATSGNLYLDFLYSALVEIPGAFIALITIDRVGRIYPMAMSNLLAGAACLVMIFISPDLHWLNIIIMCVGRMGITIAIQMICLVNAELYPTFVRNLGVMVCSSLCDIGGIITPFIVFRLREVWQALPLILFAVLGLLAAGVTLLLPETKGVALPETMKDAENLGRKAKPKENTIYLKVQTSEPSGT
Nature of the data set: Michaelis-Menten kinetics of ASP+ uptake, HEK-OCT1. The class given is cell-based. As to the method: (§1) The previously described fluorescent substrate of organic cation transporters, 4-(4-dimethylaminostyryl)-N-methylpyridinium (ASP^+), was used to determine the function of OCT1 and OCT3 by flow cytometry in the absence and the presence of bendamustine and selected bendamustine esters. HEK293 cells expressing the transporter of interest were trypsinized and washed twice with PBS, prior to re-suspension of 0.5 · 10^6 cells in 500 μL of PBS containing 2% (v/v) FCS. The cells were incubated with ASP^+ (100 μM stock solution in PBS containing 10% DMSO) for 5 minutes, allowing for cellular accumulation, and subsequently analyzed with a FACSCalibur flow cytometer. ASP^+ was excited at 488 nm and the fluorescence was measured using a 530/30 nm and a 585/42 band-pass filter. At least 1 · 10^4 single cells were analyzed by appropriate FSC/SSC gating.
(§2) Subsequently, two volumes of an ice-cold 200 μM solution of the standard inhibitor of OCT1 and OCT3, tetrapentyl ammonium (TPA), in PBS/FCS were added to one volume of cell suspension. The mixture was immediately analyzed. The mean fluorescence intensities (MFI) were calculated using FlowJo V10, and the difference between total (HEK-OCT1 or HEK-OCT3 cells) and unspecific (HEK-Co cells) uptake was plotted as specific uptake against the concentration of ASP^+. […] Km was calculated according to the Michaelis-Menten equation using GraphPad Prism 5.01.

The next data set addresses T2, OCT3 (Homo sapiens, UniProt O75751).
T2 construct: expressed in transfected cells; host or cells: HEK293 (HEK-OCT3)
T2 sequence (O75751 1-556): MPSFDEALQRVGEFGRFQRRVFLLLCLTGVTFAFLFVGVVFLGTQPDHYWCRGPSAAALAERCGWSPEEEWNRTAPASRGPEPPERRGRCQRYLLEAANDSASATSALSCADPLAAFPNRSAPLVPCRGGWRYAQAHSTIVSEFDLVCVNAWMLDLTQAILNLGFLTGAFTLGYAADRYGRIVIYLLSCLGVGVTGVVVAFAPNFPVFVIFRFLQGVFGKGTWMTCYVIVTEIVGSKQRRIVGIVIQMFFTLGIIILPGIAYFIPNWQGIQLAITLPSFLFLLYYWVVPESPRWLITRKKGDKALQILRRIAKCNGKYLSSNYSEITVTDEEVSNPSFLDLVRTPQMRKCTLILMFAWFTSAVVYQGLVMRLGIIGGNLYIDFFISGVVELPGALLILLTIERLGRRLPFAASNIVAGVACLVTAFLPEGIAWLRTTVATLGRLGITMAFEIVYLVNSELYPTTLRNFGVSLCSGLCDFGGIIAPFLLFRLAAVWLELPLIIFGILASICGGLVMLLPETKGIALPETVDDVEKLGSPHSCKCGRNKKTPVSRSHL
In words: Michaelis-Menten kinetics of ASP+ uptake, HEK-OCT3. Type of data set: cell-based. As to the method:
as §1, §2

Data set [1] relates to HT-29 cells (colorectal adenocarcinoma). In words: Chemosensitivity assay (crystal violet assay), HT-29. The note with it: Homo sapiens, 96 hours of incubation, mean ± SEM, read-out: IC50. Type of data set: cell-based, human. How it is done:
(§3) Depending on the characteristics of the cells, two different assays were performed. For adherently growing cells (HaCaT, HT-29, NCI-H460, SK-MEL-3, MG-63, Capan-1), cytotoxic and cytocidal effects were determined in the crystal violet assay, whereas for loosely adherent cells (LNCaP, SK-ES-1) and cells growing in suspension (HEL 92.1.7, Jurkat, U-937) the MTT-assay was used with minor modifications. In brief, 1.5 · 10^3 (HaCaT, HT-29, NCI-H460, SK-MEL-3, MG-63, Capan-1) or 5 · 10^3 (Jurkat, U-937, HEL92.1.7, LNCaP, SK-ES-1) cells per well were seeded into flat-bottom 96-well plates (Sarstedt, Nümbrecht, Germany). All compounds were used as solutions prepared in DMSO and tested at final concentrations (8 replicates per concentration) of 1, 3, 10, 30 and 50 μM. In case of the vehicle control and test compounds, the final DMSO concentration amounted to 0.1%. Absorbance was measured at 580 nm in a 96-well plate reader (GENios pro microplate reader, Tecan, Salzburg, Austria). Effects were quantified as previously described for both assays.

Data set [2] deals with Jurkat cells (acute T-cell leukemia). Nature of the data set: Chemosensitivity assay (MTT-assay), Jurkat. The note with it: Homo sapiens, 96 h, 96 hours of incubation, mean ± SEM. The class given is cell-based, human. As to the method: as §3
On the technique in general: Tetrazolium dyes change colour on reduction, which living cells bring about.

For data set [3], the system named is HEL 92.1.7 cells (erythroleukemia). In words: Chemosensitivity assay (MTT-assay), HEL 92.1.7. Type of data set: cell-based, human. To be noted: Homo sapiens, HEL 92.1.7, 96 h, 96 hours of incubation, mean ± SEM. How it is done:
as §3

The test system of data set [4] is Capan-1 cells (pancreatic adenocarcinoma). In words: Chemosensitivity assay (crystal violet assay), Capan-1. Type of data set: cell-based, human. The note with it: Homo sapiens, CAPAN-1, 96 h, 96 hours of incubation, mean ± SEM. As to the method: as §3
Data set [5] concerns MG-63 cells (osteosarcoma). In words: Chemosensitivity assay (crystal violet assay), MG-63. Type of data set: cell-based, human. The note with it: Homo sapiens, MG-63, 96 h, 96 hours of incubation, crystal violet assay, mean ± SEM. How it is done: as §3
The subject of data set [6] is NCI-H460 cells (large cell lung cancer). Nature of the data set: Chemosensitivity assay (crystal violet assay), NCI-H460. To be noted: Homo sapiens, 96 hours of incubation, mean ± SEM, read-out: IC50. Type of data set: cell-based, human. How it is done:
as §3

In data set [7] the test system is SK-MEL-3 cells (malignant melanoma). In words: Chemosensitivity assay (crystal violet assay), SK-MEL-3. The class given is cell-based, human. To be noted: Homo sapiens, SK-MEL3, 96 hours of incubation, mean ± SEM, read-out: IC50. As to the method:
as §3

In data set [8] the test system is SK-ES-1 cells (Ewing's sarcoma). In words: Chemosensitivity assay (MTT-assay), SK-ES-1. To be noted: 96 hours of incubation, mean ± SEM. The class given is cell-based, human. How it is done: as §3
In data set [9] the test system is LNCaP cells (prostate cancer). In words: Chemosensitivity assay (MTT-assay), LNCaP. The class given is cell-based, human. To be noted: Homo sapiens, 96 hours of incubation, mean ± SEM, read-out: IC50. As to the method:
as §3

Data set [10] deals with U-937 cells (histiocytic lymphoma). Nature of the data set: Chemosensitivity assay (MTT-assay), U-937. The class given is cell-based, human. The note with it: Homo sapiens, U-937, 96 h, 96 hours of incubation, mean ± SEM. As to the method:
as §3

Substrate in data set [11]: CN(C)c1ccc(/C=C/c2cc[n+](C)cc2)cc1
Nature of the data set: Michaelis-Menten kinetics of ASP+ uptake, HEK-OCT3. Type of data set: cell-based, human. The note with it: other: HEK-OCT3; substrate uptake, flow cytometry; 37.0 °C. As to the method:
as §1, §2
(Flow cytometry measures light scatter and fluorescence of single cells or particles in a stream.)

Substrate in data set [12]: CN(C)c1ccc(/C=C/c2cc[n+](C)cc2)cc1
Nature of the data set: Michaelis-Menten kinetics of ASP+ uptake, HEK-OCT1. To be noted: other: HEK-OCT1; substrate uptake, flow cytometry; 37.0 °C. The class given is cell-based, human. How it is done: as §1, §2

Consider `CN(C)c1ccc(C=Cc2cc[n+](C)cc2)cc1.[I-]` [ASP^+, 4-[4-(dimethylamino)styryl]-N-methylpyridinium iodide], for which the “vmax (maximal uptake rate)” value on OCT1 is 2808 ± 78 MFI/(10^4 cells · min); on OCT3, 5321 ± 89 MFI/(10^4 cells · min).

One may read the IC50 as the point on the concentration scale where inhibition reaches its midpoint. Turning to `CCOC(=O)CCCc1nc2cc(N(CCCl)CCCl)ccc2n1C` [Compound 3], the IC50 in data set [1] stood at 10000 ± 100 nM; in data set [2], 3800 ± 40 nM; in [3] it was 2900 ± 200 nM; in data set [4], 1000 ± 10 nM; in data set [5] it was 2100 ± 60 nM; in data set [6], 4800 ± 100 nM. For the same molecule, the IC50 in data set [7] is 21700 ± 4100 nM; in data set [8], 180 ± 10 nM; in data set [8] (Homo sapiens, SK-ES1, 96 h) it was approximately 200 nM; in data set [9], 1500 ± 100 nM; in [10] it was 1900 ± 10 nM.

`Cn1c(CCCC(=O)OCCN2CCCCC2)nc2cc(N(CCCl)CCCl)ccc21` [Compound 6]: the concentration for half-maximal inhibition (IC50) in data set [1] was 1700 ± 100 nM; in data set [2] it was 830 ± 10 nM; in data set [3], 1300 ± 100 nM; in data set [4], 170 ± 10 nM; in data set [5], 530 ± 10 nM; in data set [6], 1200 ± 100 nM. Also, the IC50 in data set [7] stood at 1240 ± 100 nM; in data set [8] (Homo sapiens, SK-ES1, 96 h) it was 190 ± 10 nM; in data set [9], 750 ± 30 nM; in data set [10], 1100 ± 200 nM.

On to `CN1CCN(CCOC(=O)CCCc2nc3cc(N(CCCl)CCCl)ccc3n2C)CC1` [Compound 7], for which the IC50 in data set [1] amounted to 2400 ± 100 nM; in data set [2] it was 900 ± 30 nM; in data set [3] it was 1700 ± 100 nM; in data set [4], 250 ± 20 nM; in [5] it was 550 ± 10 nM; in data set [6], 1200 ± 100 nM. Besides, the IC50 in [7] was 1000 ± 270 nM; in data set [8] (Homo sapiens, SK-ES1, 96 h) it was 190 ± 30 nM; in [9], 930 ± 120 nM; in data set [10] it was 1300 ± 300 nM.

B1: OCT3 (Homo sapiens) (protein)
chain: MPSFDEALQRVGEFGRFQRRVFLLLCLTGVTFAFLFVGVVFLGTQPDHYWCRGPSAAALAERCGWSPEEEWNRTAPASRGPEPPERRGRCQRYLLEAANDSASATSALSCADPLAAFPNRSAPLVPCRGGWRYAQAHSTIVSEFDLVCVNAWMLDLTQAILNLGFLTGAFTLGYAADRYGRIVIYLLSCLGVGVTGVVVAFAPNFPVFVIFRFLQGVFGKGTWMTCYVIVTEIVGSKQRRIVGIVIQMFFTLGIIILPGIAYFIPNWQGIQLAITLPSFLFLLYYWVVPESPRWLITRKKGDKALQILRRIAKCNGKYLSSNYSEITVTDEEVSNPSFLDLVRTPQMRKCTLILMFAWFTSAVVYQGLVMRLGIIGGNLYIDFFISGVVELPGALLILLTIERLGRRLPFAASNIVAGVACLVTAFLPEGIAWLRTTVATLGRLGITMAFEIVYLVNSELYPTTLRNFGVSLCSGLCDFGGIIAPFLLFRLAAVWLELPLIIFGILASICGGLVMLLPETKGIALPETVDDVEKLGSPHSCKCGRNKKTPVSRSHL
notes: expressed in transfected cells; host or cells: HEK293 (HEK-OCT3)
The term Km denotes the substrate concentration at which the rate is half of its maximum. Consider B1, for which the Km in [11] was 2.7 ± 0.1 µM.

B2: human OCT1 (Homo sapiens) (protein)
chain: MPTVDDILEQVGESGWFQKQAFLILCLLSAAFAPICVGIVFLGFTPDHHCQSPGVAELSQRCGWSPAEELNYTVPGLGPAGEAFLGQCRRYEVDWNQSALSCVDPLASLATNRSHLPLGPCQDGWVYDTPGSSIVTEFNLVCADSWKLDLFQSCLNAGFLFGSLGVGYFADRFGRKLCLLGTVLVNAVSGVLMAFSPNYMSMLLFRLLQGLVSKGNWMAGYTLITEFVGSGSRRTVAIMYQMAFTVGLVALTGLAYALPHWRWLQLAVSLPTFLFLLYYWCVPESPRWLLSQKRNTEAIKIMDHIAQKNGKLPPADLKMLSLEEDVTEKLSPSFADLFRTPRLRKRTFILMYLWFTDSVLYQGLILHMGATSGNLYLDFLYSALVEIPGAFIALITIDRVGRIYPMAMSNLLAGAACLVMIFISPDLHWLNIIIMCVGRMGITIAIQMICLVNAELYPTFVRNLGVMVCSSLCDIGGIITPFIVFRLREVWQALPLILFAVLGLLAAGVTLLLPETKGVALPETMKDAENLGRKAKPKENTIYLKVQTSEPSGT
notes: containing the full length SLC22A1 cDNA (NM_003057) encoding the human OCT1 protein; expressed in transfected cells
With B2, in data set [12], the Km is 3.1 ± 0.1 µM.

The values are drawn from publication PMC4721923 (PLoS ONE, 2015).
